Test results as given in patent publication US12084521B2, “TLR9 inhibitors to suppress inflammatory response to pathogens” (University Of Maryland, Baltimore, priority 2018, dated 2024).
Entries after “also recorded” stand apart in the source; their conditions may differ. No end group written: not given here.

Columns and labels:
TLR9 signaling [1] = test: ODN 1668-induced cytokine secretion in BMDM supernatants (ELISA); assay type: cell-based, mouse; conditions: 5 hour supernatants, ODN 1668 1 μM
Experimental: (§1) Mouse TNFα and IL-12-p40 concentrations were measured in supernatants using ELISA kits from Biolegend™, Inc.
BMDMs were incubated in the presence of a decoy peptide for 30 minutes prior to stimulation with ODN 1668 (1 μM). The statistical significance of changes in cytokine levels was determined by the one-way ANOVA test; *p<0.01.

TLR9-induced lethality = test: Survival of D-Gal pretreated mice after ODN 1668; assay type: in vivo, C57Bl/6J mice; conditions: ODN 1668 lower dose 3.93 nmol/mouse; peptide 200 nmol/mouse i.p.
Experimental: Systemic cytokine levels were measured in plasma samples obtained 1, 3, and 5 hours after intraperitoneal (i.p.) administration of 7.86 nmol (50 μg) of ODN 1668 or 67 nmol of Pam3C per mouse, using ELISA kits from Biolegend™ Inc. CPDP were dissolved in PBS and administered i.p. at the dose of 200 nmol per mouse 1 hour before administration of a TLR agonist. For survival experiments, mice were sensitized to TLR9 agonists by i.p. injection of 20 mg of D-Gal 30 minutes before administration of peptides or PBS. ODN 1668 was used at the doses of 3.93 or 7.86 nmol/mouse (25 or 50 μg/mouse) 1.5 hours after D-Gal. Animal survival was monitored for 50 hours. All agents were administered i.p. in 500 μL volume of PBS. Animals had free access to food and water during the observation period. All animal experiments were conducted in accordance with the national guidelines for the care and use of laboratory animals under a protocol that was approved by the UMB IACUC.
With the exception for LPS, administration of a purified TLR agonist is not lethal to mice. Mice, however, can be sensitized to TLR agonists by pretreatment with D-galactosamine (D-Gal). Survival of C57Bl/6J mice pretreated with D-galactosamine and challenged with different doses of ODN 1668 was tested. Mice were first administered with D-Gal intraperitoneally at the dose of 20 mg/mouse. Thirty minutes later mice were mock-treated with PBS or treated with a CPDP at the dose 200 nmol/mouse. ODN 1668 was administered 1 hour after peptide treatment at the dose of 3.93 or 7.86 nmol/mouse.

TLR1/2 signaling = test: TNFα mRNA in BMDM stimulated with Pam3C; assay type: cell-based, mouse; conditions: peptide 40 μM; P3C 0.33 μM; 1 h
Experimental: (§2) The cDNA obtained was amplified with gene-specific primers for mouse HPRT, TNFα, IL-10, IL-12-p40, or IL-6 and Fast SYBR Green™ master mix (Applied Biosystemsm) as previously described.
(§3) CPDPs 9R34 and 9R11 were examined for inhibition of TLR1/2, TLR4, and TLR7 signaling. BMDMs were stimulated with Pam3C, E. coli LPS, or R848 and TNFαmRNA was measured 1 hour after stimulation. Mouse BMDM were treated with 40 μM of the indicated peptides for 30 minutes prior to stimulation with ODN 1668 (1 μM), E. coli LPS (0.1 μg/mL), R848 (2.85 μM), or P3C (0.33 μM). R848 and P3C were used to specifically activate TLR7 and TLR2 signaling, respectively. TNFαmRNA expression was measured 1 h after ODN 1668 challenge and normalized to the expression of HPRT. See results in FIG. 8A, FIG. 8B, and FIG. 8C. […] The statistical significance of changes was determined by a one-way ANOVA test; *p<0.01.

[2] = Stability and solubility of peptide solutions
TLR9 signaling [3] = test: TNFα mRNA in BMDM at varying ODN 1668 concentration, comparison with INH-18; assay type: cell-based, mouse; conditions: inhibitor 30 min before varying ODN 1668, 1 hour
Experimental: To investigate inhibition of TLR9 signaling by 9R34 further, the following work was conducted. Mouse BMDMs were treated with the effective dose of either INH-18 (an ODN-based, competitive inhibitor of TLR9, commercially available through Invivogen™) or 9R34, 30 minutes prior to stimulation with varying concentration of ODN 1668. TNFα mRNA expression was measured 1 hour after ODN 1668 challenge and normalized to the expression of HPRT.

myDDosome = conditions: BMDM pretreated with CPDP; MyD88 IP, IRAK4 blot
Experimental: Four million BMDMs per well were plated in 6-well plates and treated with CPDP for 30 minutes prior to stimulation with ODN 1668 for 90 minutes. Cells were lysed in 600 p L of buffer containing 20 mM HEPES (pH 7.4), 150 mM NaCl, 10 mM NaF, 2 mM Na3VO4, 1 mM EDTA, 1 mM EGTA, 0.5% Triton X-100, 0.1 mM DTT, and protease inhibitor cocktail (Roche™). Cell extracts were incubated overnight with 1 μg of anti-mouse MyD88 antibody (AF3109) (R&D Systems™, followed by a 4-hour incubation with 20 μL protein G Sepharose beads (ThermoFisherm Scientific). The beads were then washed 3 times with 500 μL of lysis buffer and boiled in 60 μL of Laemmli sample buffer (Bio-Rad™). Cell extracts were electrophoresed on 10% acrylamide gel by SDS-PAGE and transferred to PVDF membrane (Bio-Rad™). Rabbit anti-MyD88 IgG was purchased from Cell Signaling™. Mouse anti-IRAK4 IgG was obtained from Abcam™. Alkaline phosphatase-conjugated secondary antibodies against mouse and rabbit IgG were purchased from Cell Signaling™. The stabilized substrate for alkaline phosphatase was from Promega™.
TLR stimulation causes formation of myDDosome, a signaling complex composed through interactions of IRAK and MyD88 death domains. To test if peptides inhibit myDDosome formation, MyD88 was immunoprecipitated from lysates of ODN-stimulated BMDM and the precipitates analyzed for IRAK4 presence. BMDM were lysed and lysates immunoprecipitated with anti-MyD88 Ab and immune complexes assessed with anti-IRAK4 Ab 3 hours after cell treatment with ODN 1668.

TLR7 signaling = test: TNFα mRNA in BMDM stimulated with R848; assay type: cell-based, mouse; conditions: peptide 40 μM; R848 2.85 μM; 1 h
Experimental: as §2, §3

TLR4 signaling = test: LPS-induced TNFα secretion in BMDM (ELISA); assay type: cell-based, mouse; conditions: peptide 20 or 40 μM; E. coli LPS 0.1 μg/mL; 5 hour BMDM supernatants
Experimental: as §1
BMDM were treated with 20 or 40 μM of 9R34 for 30 minutes prior to stimulation with E. coli LPS (0.1 μg/mL). TNFαconcentration in supernatants was evaluated by ELISA 5 hours after cell stimulation. See results in FIG. 9. Data represent means±SEM of three independent experiments.

TLR9 signaling [4] = test: ODN 1668-induced cytokine mRNA expression in BMDM (quantitative real time PCR); assay type: cell-based, mouse
Experimental: as §2
Mouse BMDMs were incubated in the presence of a 10, 20 or 40 μM decoy peptide for 30 minutes prior to stimulation with ODN 1668 (1 μM). […] Data represent the means±SEM of at least three independent experiments. The statistical significance of changes in cytokine mRNA was determined by a one-way ANOVA test; *p<0.001. Peptides 9R3 and 9R34 have overlapping sequences (see Table 1).
To investigate inhibition of TLR9 signaling by 9R34 analogues, the following work was performed. Mouse BMDMs were incubated in the presence of a 10, 20 or 40 μM decoy peptide for 30 minutes prior to stimulation with ODN 1668 (1 μM). Cytokine mRNA expression was measured 1 hour after ODN 1668 challenge and normalized to the expression of HPRT. See also Table 1. Data represent means±SEM of at least three independent experiments.

[5] = BMDM, peptide 10, 20 or 40 μM 30 min before ODN 1668 (1 μM), 1 hour, normalized to HPRT

GRWALRLCLEERD (also: antennapedia vector attached) [Peptide 9R34, tested as CPDP with antennapedia vector]
secretion of IL-12-p40 (TLR9 signaling [1]; peptide 20 μM): also effective | production/secretion of TNFα (TLR9 signaling [1]; peptide 40 μM): decreased the production of TNFα | secretion of IL-12-p40 (TLR9 signaling [1]; peptide 40 μM): reduced secretion | protection of D-Gal pretreated mice (survival) (TLR9-induced lethality): full protection | signaling induced by TLR1/2 agonist (TNFα mRNA) (TLR1/2 signaling): did not inhibit | stability of millimolar stock solutions [2]: unstable | stability of peptide solutions in the presence of high protein concentrations [2]: also unstable | TNFα/HPRT mRNA expression ratio with increased concentrations of agonistic ODN (TLR9 signaling [3]): efficient inhibition in a wider range of agonist concentrations | ODN 1668-induced myDDosome formation (myDDosome): prevented ODN 1668-induced myDDosome formation | signaling induced by TLR7 agonist (TNFα mRNA) (TLR7 signaling): did not inhibit | LPS-induced TNFα secretion (TLR4 signaling): did not reduce | TNFα mRNA expression (TLR9 signaling [4]; BMDM, peptide 10, 20 or 40 μM 30 min before ODN 1668 (1 μM), 1 hour after stimulation, normalized to HPRT): significantly suppressed | IL-10 mRNA expression (TLR9 signaling [4]; [5]): significantly suppressed | IL-12-p40 mRNA expression (TLR9 signaling [4]; [5]): significantly suppressed | inhibition of TLR9 signaling (ODN 1668-induced cytokine mRNA, overall) (TLR9 signaling [4]; BMDM, peptide 10, 20 or 40 μM, ODN 1668 1 μM): most potent inhibitor; also recorded: inhibit TLR9 signaling; also recorded: inhibited TLR9 signaling more potently than 9R3 | expression of all tested cytokines at lower peptide concentrations (TLR9 signaling [4]; peptide 10 or 20 μM): inhibited expression of all tested cytokines
